Test results reported in patent publication US10428083B2, “Heterocyclylmethyl-thienouracile as antagonists of the adenosine-A2B-receptor” (BAYER PHARMA AKTIENGESELLSCHAFT, priority 2015, dated 2019).

The compounds below were run against human adenosine A2b receptor (Homo sapiens (Human), UniProt P29275) (assay: Cellular in vitro reporter gene test for A2b receptor activity (CHO-K1, CRE-luciferase, NECA stimulation)). Conditions: recombinant CHO-K1 cell line, CRE-luciferase reporter, antagonism of EC50 concentration of NECA; in some cases means of several determinations, rounded to two significant figures; read-out: A2b receptor IC50.
Format: cell-based
Outline: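 CHO-K1 cells with CRE-driven luciferase; antagonists co-incubated with NECA at its EC50, determined in a pre-experiment on each test day. Luciferase read by luminescence 3 h after NECA addition.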

human adenosine A2b receptor, sequence (P29275 whole entry): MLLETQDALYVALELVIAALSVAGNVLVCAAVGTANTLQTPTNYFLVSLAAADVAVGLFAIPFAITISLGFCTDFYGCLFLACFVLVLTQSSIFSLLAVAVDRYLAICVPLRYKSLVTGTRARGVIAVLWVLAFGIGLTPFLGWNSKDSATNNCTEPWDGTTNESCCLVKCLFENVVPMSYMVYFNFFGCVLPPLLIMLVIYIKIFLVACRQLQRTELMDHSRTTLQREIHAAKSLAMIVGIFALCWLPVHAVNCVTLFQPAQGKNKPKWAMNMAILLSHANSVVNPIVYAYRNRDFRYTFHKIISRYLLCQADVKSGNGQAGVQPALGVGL

Point of comparison: `CCn1c(=O)c2c(C)c(Cn3nc[nH]c3=O)sc2n(CC2CCCO2)c1=O` (single isomer, unassigned) [Example 420, 3-Ethyl-5-methyl-6-[(5-oxo-4,5-dihydro-1H-1,2,4-triazol-1-yl)methyl]-1-(tetrahydrofuran-2-ylmethyl)thieno[2,3-d]pyrimidine-2,4(1H,3H)-dione], IC50 50 nM. Against it:
- CCn1c(=O)c2c(C)c(CN3CCNC3=NC(=O)OC)sc2n(CC2CCCO2)c1=O (single isomer, unassigned) [Example 375, Methyl [1-{[3-ethyl-5-methyl-2,4-dioxo-1-(tetrahydrofuran-2-ylmethyl)-1,2,3,4-tetrahydrothieno[2,3-d]pyrimidin-6-yl]methyl}imidazolidin-2-ylidene]carbamate] — 7.9-fold lower, 6.3 nM
- CCn1c(=O)c2c(C)c(CN3CCNC3=NC(=O)OC)sc2n(CC2CCCO2)c1=O (single isomer, unassigned) [Example 376, Methyl [1-{[3-ethyl-5-methyl-2,4-dioxo-1-(tetrahydrofuran-2-ylmethyl)-1,2,3,4-tetrahydrothieno[2,3-d]pyrimidin-6-yl]methyl}imidazolidin-2-ylidene]carbamate] — 6.3-fold lower, 7.9 nM
- COCCn1c(=O)c2c(C)c(CN3CCNC3=NC(=O)OC)sc2n(CC2CCO2)c1=O (single isomer, unassigned) [Example 388, Methyl [1-{[3-(2-methoxyethyl)-5-methyl-1-(oxetan-2-ylmethyl)-2,4-dioxo-1,2,3,4-tetrahydrothieno[2,3-d]pyrimidin-6-yl]methyl}imidazolidin-2-ylidene]carbamate] — 1.5-fold lower, 33 nM
- COCCn1c(=O)c2c(C)c(CN3CCNC3=NC(=O)OC)sc2n(CC2CCO2)c1=O (single isomer, unassigned) [Example 389, Methyl [1-{[3-(2-methoxyethyl)-5-methyl-1-(oxetan-2-ylmethyl)-2,4-dioxo-1,2,3,4-tetrahydrothieno[2,3-d]pyrimidin-6-yl]methyl}imidazolidin-2-ylidene]carbamate] — 1.7-fold higher, 87 nM
- COCCn1c(=O)c2c(C)c(CN3CCNC3=NC(=O)OC)sc2n(CC2CCCO2)c1=O (single isomer, unassigned) [Example 391, Methyl [1-f{[3-(2-methoxyethyl)-5-methyl-2,4-dioxo-1-(tetrahydrofuran-2-ylmethyl)-1,2,3,4-tetrahydrothieno[2,3-d]pyrimidin-6-yl]methyl}imidazolidin-2-ylidene]carbamate] — within 1.5-fold, 34 nM
- COCCn1c(=O)c2c(C)c(CN3CCNC3=NC(=O)OC)sc2n(CC2CCCO2)c1=O (single isomer, unassigned) [Example 392, Methyl [1-f{[3-(2-methoxyethyl)-5-methyl-2,4-dioxo-1-(tetrahydrofuran-2-ylmethyl)-1,2,3,4-tetrahydrothieno[2,3-d]pyrimidin-6-yl]methyl}imidazolidin-2-ylidene]carbamate] — within 1.5-fold, 56 nM
- Cc1c(CN2CCNC(=O)C2=O)sc2c1c(=O)n(C(C)C)c(=O)n2CC1CCO1 (single isomer, unassigned) [Example 398, 6-[(2,3-Dioxopiperazin-1-yl)methyl]-3-isopropyl-5-methyl-1-(oxetan-2-ylmethyl)thieno[2,3-d]pyrimidine-2,4(1H,3H)-dione] — 4.8-fold higher, 240 nM
- Cc1c(CN2CCNC(=O)C2=O)sc2c1c(=O)n(C(C)C)c(=O)n2CC1CCO1 (single isomer, unassigned) [Example 399, 6-[(2,3-Dioxopiperazin-1-yl)methyl]-3-isopropyl-5-methyl-1-(oxetan-2-ylmethyl)thieno[2,3-d]pyrimidine-2,4(1H,3H)-dione] — 1.9-fold lower, 26 nM
- COCCn1c(=O)c2c(C)c(CN3CCNC(=O)C3=O)sc2n(CC2CCO2)c1=O (single isomer, unassigned) [Example 401, 6-[(2,3-Dioxopiperazin-1-yl)methyl]-3-(2-methoxyethyl)-5-methyl-1-(oxetan-2-ylmethyl)thieno[2,3-d]pyrimidine-2,4(1H,3H)-dione] — 13-fold higher, 660 nM
- COCCn1c(=O)c2c(C)c(CN3CCNC(=O)C3=O)sc2n(CC2CCO2)c1=O (single isomer, unassigned) [Example 402, 6-[(2,3-Dioxopiperazin-1-yl)methyl]-3-(2-methoxyethyl)-5-methyl-1-(oxetan-2-ylmethyl)thieno[2,3-d]pyrimidine-2,4(1H,3H)-dione] — 2-fold higher, 100 nM
- Cc1c(CN2CCNC2=O)sc2c1c(=O)n(CC(C)(C)C)c(=O)n2CC1CCCO1 (single isomer, unassigned) [Example 407, 3-(2,2-Dimethylpropyl)-5-methyl-6-[(2-oxoimidazolidin-1-yl)methyl]-1-(tetrahydrofuran-2-ylmethyl)thieno[2,3-d]pyrimidine-2,4(1H,3H)-dione] — 1.6-fold lower, 32 nM
- Cc1c(CN2CCNC2=O)sc2c1c(=O)n(CC(C)(C)C)c(=O)n2CC1CCCO1 (single isomer, unassigned) [Example 408, 3-(2,2-Dimethylpropyl)-5-methyl-6-[(2-oxoimidazolidin-1-yl)methyl]-1-(tetrahydrofuran-2-ylmethyl)thieno[2,3-d]pyrimidine-2,4(1H,3H)-dione] — 4.2-fold lower, 12 nM
- COC(C)Cn1c(=O)c2c(C)c(CN3CCNC3=O)sc2n(CCC(F)(F)F)c1=O (single isomer, unassigned) [Example 413, 3-(2-Methoxypropyl)-5-methyl-6-[(2-oxoimidazolidin-1-yl)methyl]-1-(3,3,3-trifluoropropyl)thieno[2,3-d]pyrimidine-2,4(1H,3H)-dione] — 11-fold lower, 4.6 nM
- COC(C)Cn1c(=O)c2c(C)c(CN3CCNC3=O)sc2n(CCC(F)(F)F)c1=O (single isomer, unassigned) [Example 414, 3-(2-Methoxypropyl)-5-methyl-6-[(2-oxoimidazolidin-1-yl)methyl]-1-(3,3,3-trifluoropropyl)thieno[2,3-d]pyrimidine-2,4(1H,3H)-dione] — 4.5-fold lower, 11 nM
- CCn1c(=O)c2c(C)c(Cn3nc[nH]c3=O)sc2n(CC2CCCO2)c1=O (single isomer, unassigned) [Example 421, 3-Ethyl-5-methyl-6-[(5-oxo-4,5-dihydro-1H-1,2,4-triazol-1-yl)methyl]-1-(tetrahydrofuran-2-ylmethyl)thieno[2,3-d]pyrimidine-2,4(1H,3H)-dione] — within 1.5-fold, 71 nM
- Cc1c(Cn2nc[nH]c2=O)sc2c1c(=O)n(C(C)C)c(=O)n2CC1CCCO1 (single isomer, unassigned) [Example 425, 3-Isopropyl-5-methyl-6-[(5-oxo-4,5-dihydro-1H-1,2,4-triazol-1-yl)methyl]-1-(tetrahydrofuran-2-ylmethyl)thieno[2,3-d]pyrimidine-2,4(1H,3H)-dione] — within 1.5-fold, 42 nM
- Cc1c(Cn2nc[nH]c2=O)sc2c1c(=O)n(C(C)C)c(=O)n2CC1CCCO1 (single isomer, unassigned) [Example 426, 3-Isopropyl-5-methyl-6-[(5-oxo-4,5-dihydro-1H-1,2,4-triazol-1-yl)methyl]-1-(tetrahydrofuran-2-ylmethyl)thieno[2,3-d]pyrimidine-2,4(1H,3H)-dione] — 5.4-fold higher, 270 nM
- Cc1c(Cn2nc[nH]c2=O)sc2c1c(=O)n(CC(C)(C)C)c(=O)n2CC1CCCO1 (single isomer, unassigned) [Example 430, 3-(2,2-Dimethylpropyl)-5-methyl-6-[(5-oxo-4,5-dihydro-1H-1,2,4-triazol-1-yl)methyl]-1-(tetrahydrofuran-2-ylmethyl)thieno[2,3-d]pyrimidine-2,4(1H,3H)-dione] — 5.6-fold higher, 280 nM
- Cc1c(Cn2nc[nH]c2=O)sc2c1c(=O)n(CC(C)(C)C)c(=O)n2CC1CCCO1 (single isomer, unassigned) [Example 431, 3-(2,2-Dimethylpropyl)-5-methyl-6-[(5-oxo-4,5-dihydro-1H-1,2,4-triazol-1-yl)methyl]-1-(tetrahydrofuran-2-ylmethyl)thieno[2,3-d]pyrimidine-2,4(1H,3H)-dione] — 15-fold higher, 740 nM
- Cc1c(Cn2nc[nH]c2=O)sc2c1c(=O)n(CC(F)(F)F)c(=O)n2CC1CCCO1 (single isomer, unassigned) [Example 435, 5-Methyl-6-[(5-oxo-4,5-dihydro-1H-1,2,4-triazol-1-yl)methyl]-1-(tetrahydrofuran-2-ylmethyl)-3-(2,2,2-trifluoroethyl)thieno[2,3-d]pyrimidine-2,4(1H,3H)-dione] — within 1.5-fold, 43 nM
- Cc1c(Cn2nc[nH]c2=O)sc2c1c(=O)n(CC(F)(F)F)c(=O)n2CC1CCCO1 (single isomer, unassigned) [Example 436, 5-Methyl-6-[(5-oxo-4,5-dihydro-1H-1,2,4-triazol-1-yl)methyl]-1-(tetrahydrofuran-2-ylmethyl)-3-(2,2,2-trifluoroethyl)thieno[2,3-d]pyrimidine-2,4(1H,3H)-dione] — within 1.5-fold, 65 nM
- COC(C)Cn1c(=O)c2c(C)c(Cn3nc[nH]c3=O)sc2n(CCC(F)(F)F)c1=O (single isomer, unassigned) [Example 441, 3-(2-Methoxypropyl)-5-methyl-6-[(5-oxo-4,5-dihydro-1H-1,2,4-triazol-1-yl)methyl]-1-(3,3,3-trifluoropropyl)thieno[2,3-d]pyrimidine-2,4(1H,3H)-dione] — 5.8-fold lower, 8.6 nM
- COC(C)Cn1c(=O)c2c(C)c(Cn3nc[nH]c3=O)sc2n(CCC(F)(F)F)c1=O (single isomer, unassigned) [Example 442, 3-(2-Methoxypropyl)-5-methyl-6-[(5-oxo-4,5-dihydro-1H-1,2,4-triazol-1-yl)methyl]-1-(3,3,3-trifluoropropyl)thieno[2,3-d]pyrimidine-2,4(1H,3H)-dione] — within 1.5-fold, 60 nM
- Cc1c(CN2CCNC2=NC#N)sc2c1c(=O)n(CC(C)(C)C)c(=O)n2CC1CCCO1 (single isomer, unassigned) [Example 447, [1-{[3-(2,2-Dimethylpropyl)-5-methyl-2,4-dioxo-1-(tetrahydrofuran-2-ylmethyl)-1,2,3,4-tetrahydrothieno[2,3-d]pyrimidin-6-yl]methyl}imidazolidin-2-ylidene]cyanamide] — 5.2-fold lower, 9.7 nM
